Measurements published in patent publication US20040092402A1, “Pyrimidine derivatives and herbicides containing the same” (priority 2000, published 2004).
“And” between values parts separate entries of the source, which are not always exact repeats. Identical values can stand only once.

melting point	Compound
112 to 113 °C and 109 to 111 °C	COc1cc(-c2ncnc(C(F)(F)F)c2Cl)c(F)cc1Cl [A-1, 5-chloro-4-(4-chloro-2-fluoro-5-methoxyphenyl)-6-trifluoromethylpyrimidine]
112 to 113 °C	C#CCOc1cc(-c2ncnc(C(F)(F)F)c2Cl)c(F)cc1Cl [A-3, 5-Chloro-4-(4-chloro-2-fluoro-5-propargyloxyphenyl)-6-trifluoromethylpyrimidine]
188 to 189 °C and 191 to 194 °C	CCS(=O)(=O)Nc1cc(-c2ncnc(C(F)(F)F)c2Cl)c(F)cc1C#N [A-16, 5-chloro-4-[4-cyano-5-(N-ethanesulfonylamino)-2-fluorophenyl]-6-trifluoromethylpyrimidine]
144 to 146 °C	CCS(=O)(=O)N(C(C)=O)c1cc(-c2ncnc(C(F)(F)F)c2Cl)c(F)cc1C#N [A-23, 4-[5-(N-acetyl-N-ethanesulfonylamino)-4-cyano-2-fluorophenyl]-5-chloro-6-trifluoromethylpyrimidine]
69 to 71 °C and 67 to 71 °C	C=CCOc1cc(-c2ncnc(C(F)F)c2Cl)c(F)cc1Cl [D-2, 4-(5-Allyloxy-4-chloro-2-fluorophenyl)-5-chloro-6-difluoromethylpyrimidine]
56 to 57 °C	Fc1cc(Cl)c(OC(F)F)cc1-c1ncnc(C(F)F)c1Cl [D-7, 5-Chloro-4-[4-chloro-2-fluoro-5-(difluoromethoxy)phenyl]-6-difluoromethylpyrimidine]
138 to 139 °C	CCS(=O)(=O)Nc1cc(-c2ncnc(C(F)F)c2Cl)c(F)cc1Cl [D-14, 5-Chloro-4-(4-chloro-5-ethylsulfonylamino-2-fluoro-phenyl)-6-difluoromethylpyrimidine]
140 to 142 °C	CCS(=O)(=O)Nc1cc(-c2ncnc(C(F)F)c2Cl)c(Cl)cc1Cl [D-16, 5-Chloro-4-(2,4-dichloro-5-ethylsulfonylaminophenyl)-6-difluoromethylpyrimidine]
160 to 162 °C	CC(=O)Nc1cc(-c2ncnc(C(F)F)c2Cl)c(F)cc1C#N [D-21, 4-(5-Acetylamino-4-cyano-2-fluorophenyl)-5-chloro-6-difluoromethylpyrimidine]
200 to 202 °C	CCS(=O)(=O)Nc1cc(-c2ncnc(C(F)F)c2Cl)c(F)cc1C#N [D-26, 5-Chloro-4-[4-cyano-5-(ethylsulfonylamino)-2-fluoro-phenyl]-6-difluoromethylpyrimidine]
121 to 122 °C	CCS(=O)(=O)N(C(C)=O)c1cc(-c2ncnc(C(F)F)c2Cl)c(F)cc1C#N [D-27, 4-[5-(N-acetyl-N-ethylsulfonylamino)-4-cyano-2-fluorophenyl]-5-chloro-6-difluoromethylpyrimidine]
100 to 101 °C	COC(=O)c1cc(-c2ncnc(C(F)F)c2Cl)c(F)cc1Cl [D-41, 2-Chloro-4-fluoro-5-(5-chloro-6-difluoromethyl-pyrimidin-4-yl)benzoic acid methyl ester]
95 to 97 °C	C#CCSc1cc(-c2ncnc(C(F)F)c2Cl)c(F)cc1Cl [D-48, 5-Chloro-4-(4-chloro-2-fluoro-5-propargylthio-phenyl)-6-difluoromethylpyrimidine]
172 to 175 °C	CC(C)NS(=O)(=O)c1cc(-c2ncnc(C(F)F)c2Cl)c(F)cc1Cl [D-50, 2-Chloro-5-(5-chloro-6-difluoromethylpyrimidin-4-yl)-4-fluoro-N-isopropylbenzenesulfonamide]
77 to 79 °C	Cc1ncnc(-c2ccc(Cl)cc2F)c1Cl [E-1, 4-(4-Chloro-2-fluorophenyl)-5-chloro-6-methyl-pyrimidine]
182 to 184 °C	CCS(=O)(=O)Nc1cc(-c2ncnc(C)c2Cl)c(F)cc1C#N [E-10, 5-Chloro-4-[4-cyano-5-(ethylsulfonylamino)-2-fluoro-phenyl]-6-methylpyrimidine]
160 to 162 °C	CCS(=O)(=O)Nc1cc(-c2ncnc(C(C)C)c2Cl)c(F)cc1C#N [E-13, 5-Chloro-4-[4-cyano-5-(ethylsulfonylamino)-2-fluoro-phenyl]-6-isopropylpyrimidine]

melting point	Compound
86 to 88 °C	C#CCOc1cc(-c2ncnc(C(Cl)Cl)c2Cl)c(F)cc1Cl [E-19, 5-Chloro-4-(4-chloro-2-fluoro-5-propargyloxyphenyl)-6-dichloromethylpyrimidine]
142 to 143 °C	COc1cc(-c2ncnc(OC)c2Cl)c(F)cc1Cl [H-1, 5-Chloro-4-(4-chloro-2-fluoro-5-methoxyphenyl)-6-methoxypyrimidine]
149 to 150 °C	CCS(=O)(=O)Nc1cc(-c2ncnc(OC)c2Cl)c(F)cc1C#N [H-7, 5-Chloro-4-[4-cyano-5-(ethylsulfonylamino)-2-fluorophenyl]-6-methoxypyrimidine]
149 to 150 °C	CCS(=O)(=O)Nc1cc(-c2ncnc(Cl)c2Cl)c(F)cc1C#N [H-16, 4,5-Dichloro-6-[4-cyano-5-(ethylsulfonylamino)-2-fluorophenyl]pyrimidine]
211 to 212 °C	CCS(=O)(=O)Nc1cc(C2(NC)NC=NC=C2Cl)c(F)cc1C#N (stereo not shown) [H-20, 5-Chloro-6-[4-cyano-5-(ethylsulfonylamino)-2-fluoro-phenyl]-6-methylaminopyrimidine]
188 to 189 °C	CCS(=O)(=O)Nc1cc(-c2ncnc(NOC)c2Cl)c(F)cc1C#N [H-27, 5-Chloro-4-[4-cyano-5-(ethylsulfonylamino)-2-fluoro-phenyl]-6-methoxyaminopyrimidine]
156 to 157 °C	COC1(F)C=C(Cl)C=CC1c1ncnc(C)c1C (stereo not shown) [J-1, 4-(4-Chloro-2-fluoro-2-methoxyphenyl)-5,6-dimethyl-pyrimidine]
131 to 133 °C	C#CCOc1cc(-c2ncnc(C)c2C)c(F)cc1Cl [J-3, 4-(4-Chloro-2-fluoro-5-propargyloxyphenyl)-5,6-dimethyl pyrimidine]
144 to 146 °C	COc1cc(-c2ncnc(C(F)(F)F)c2C)c(F)cc1Cl [J-5, 4-(4-Chloro-2-fluoro-5-methoxyphenyl)-5-methyl-6-trifluoromethylpyrimidine]
90 to 92 °C	C#CCOc1cc(-c2ncnc(C(F)(F)F)c2C)c(F)cc1Cl [J-7, 4-(4-Chloro-2-fluoro-5-propargyloxyphenyl)-5-methyl-6-trifluoromethylpyrimidine]
123 to 124 °C	CCS(=O)(=O)N(C(C)=O)c1cc(-c2ncnc(C(F)F)c2Cl)c(F)cc1C#N [J-14, 4-[5-(N-acetyl-N-ethylsulfonylamino)-4-cyano-2-fluorophenyl]-5-chloro-6-difluoromethylpyrimidine]
218 to 220 °C	COc1ncnc(-c2cc(NS(C)(=O)=O)c(C#N)cc2F)c1C [J-16, 4-(4-cyano-5-methylsulfonylamino-2-fluorophenyl)-6-methoxy-5-methylpyrimidine]
183 to 185 °C	COc1cc(-c2ncnc(OC)c2C#N)c(F)cc1Cl [K-1, 4-(4-Chloro-2-fluoro-5-methoxyphenyl)-5-cyano-6-methoxypyrimidine]
187 to 189 °C	CCS(=O)(=O)Nc1cc(-c2ncnc(OC)c2C#N)c(F)cc1C#N [K-3, 4-(4-Cyano-5-ethylsulfonylamino-2-fluorophenyl)-5-cyano-6-methoxypyrimidine]
142 to 144 °C	COC(=O)c1cc(-c2ncnc(C)c2C#N)c(F)cc1Cl [K-19, Methyl 2-chloro-5-(5-cyano-6-methylpyrimidin-4-yl)-4-fluorobenzoate]
160 to 162 °C	COc1ncnc(-c2cc(NS(C)(=O)=O)c(Cl)cc2Cl)c1C#N [K-20, 4-(2,4-Dichloro-5-methylsulfonylaminophenyl)-5-cyano-6-methoxypyrimidine]
161 to 163 °C	COc1cc(-c2ncnc(OC)c2C=O)c(F)cc1Cl [L-1, 4-(4-Chloro-2-fluoro-5-methoxyphenyl)-5-formyl-6-methoxypyrimidine]
